Results: patent US20130245110A1, “USE FOR CANNABINOIDS” (priority 2008, published 2013)
Where “and” joins values, the source holds several entries; their conditions need not be identical. Equal values may be shown once.

Tests used:
pancreatic lipase = target: T1, pancreatic lipase (Homo sapiens, UniProt P16233); conditions: subjects eating a 30% fat diet; cited from earlier work
T1 construct: host or cells: endogenous enzyme in subjects (in vivo)
T1 sequence (P16233 17-465): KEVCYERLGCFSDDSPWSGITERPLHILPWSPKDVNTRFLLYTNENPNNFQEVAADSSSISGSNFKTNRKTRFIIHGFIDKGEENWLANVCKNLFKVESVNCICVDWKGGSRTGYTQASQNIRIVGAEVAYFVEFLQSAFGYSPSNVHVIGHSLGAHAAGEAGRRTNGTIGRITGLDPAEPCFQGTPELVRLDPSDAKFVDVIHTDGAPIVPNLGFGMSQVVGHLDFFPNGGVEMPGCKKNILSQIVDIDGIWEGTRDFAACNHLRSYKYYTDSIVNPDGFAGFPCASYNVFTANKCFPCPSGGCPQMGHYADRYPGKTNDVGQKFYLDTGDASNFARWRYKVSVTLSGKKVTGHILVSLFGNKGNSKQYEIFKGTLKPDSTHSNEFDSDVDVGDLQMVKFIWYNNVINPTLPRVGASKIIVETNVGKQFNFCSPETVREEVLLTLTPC

[1] = system: dietary induced obese (DIO) mouse model; experiment: 24 h energy expenditure by indirect calorimetry, chronic dosing study; type: in vivo; conditions: DIO mice; 10 mg·kg−1 p.o.; relative to control, first 12 h post-dosing
From the text: The C57B1/6 mouse fed on a high fat diet for around 12 weeks is a standard model used to evaluate agents likely to affect metabolic disease including obesity, type II diabetes and dyslipidaemia. Thus both potential anti-obesity effects and effects on diabetic and dyslipidaemia parameters will be measured.
(§1) Once the acute studies were complete the mice were grouped in two groups of five mice for the chronic dosing study. Dosing was daily by oral gavage at 09:00-10:00.

[2] = system: dietary induced obese (DIO) mouse model; experiment: Thermic response to food (energy expenditure after Complan meal), chronic dosing study; type: in vivo; parameters: Thermic response to food: unit not given here; conditions: DIO mice, days 15-17; for Thermic response to food: 10 mg·kg−1 p.o.
From the text: as §1
Energy expenditure consists of basal metabolic rate, exercise-induced energy expenditure, and non-exercise thermogenesis. The latter is the most likely area to be affected by anti-obesity agents. Non-exercise thermogenesis includes the thermic response to food, which in rodents can be measured by examining energy expenditure in response to a meal. This was measured after an oral dose of complan (see methods).

rat isolated aortae = experiment: In vitro vascular studies by wire myography

CCCCCCCCCCC[C@@H](C[C@@H]1OC(=O)[C@H]1CCCCCC)OC(=O)[C@H](CC(C)C)NC=O [Orlistat]
Block of triacylglycerol hydrolysis (pancreatic lipase): 30%

Cc1c(C(=O)NN2CCCCC2)nn(-c2ccc(Cl)cc2Cl)c1-c1ccc(Cl)cc1 [rimonabant, reference compound]
Effect on 24 h energy expenditure (days 10-12) [1]: small increase in energy expenditure | Thermic response to food ([2]; Hour 0.44): 1.11 and 1.21 and 2.21 | Thermic response to food ([2]; Hour 0.67): 1.38 and 1.56 and 2.67 | Thermic response to food ([2]; Hour 4.00): 1.56 and 2.90 and 3.09 | Thermic response to food, effect in words ([2]; chronic-study doses (rimonabant 10, pure THCV 0.3 mg·kg−1 p.o.)): without effect

COc1ccc(CCN(C)CCCC(C#N)(c2ccc(OC)c(OC)c2)C(C)C)cc1OC (stereo not shown) [verapamil, reference compound]
Vasorelaxation of pre-constricted vessels (rat isolated aortae): significant vasorelaxation
